Test system: HFD-fed wild-type mice
Test: Sphingolipid levels in tissues and serum of HFD-fed mice by mass spectrometry
Assay type: in vivo, mouse
Details: for Cer 14:0 / Cer 16:0 / Cer 18:0 / Cer 18:1 / Cer 20:0 / Cer 22:0 / Cer 24:0 / Cer 24:1 / Cer 26:0 / Cer 26:1 / DeoxySphinganie / Deoxysphingosine / Hexosyl 14:0 / Hexosyl 16:0 / Hexosyl 18:0 / Hexosyl 20:0 / Hexosyl 22:0 / Hexosyl 24:0 / Hexosyl 24:1 / Lactosyl 16:0 / Lactosyl 18:0 / Lactosyl 22:0 / Lactosyl 24:1 / Lactosyl C24:0 / Sphingaine1P / Sphinganine / Sphingosine / Sphingosine1P / dCer 16:0 / dCer 18:0 / dCer 20:0 / dCer 22:0 / dCer 24:0 / dCer 24:1: 5 mg/kg twice a day 5 days, average ± SD
Method: Six-week-old wild-type male mice were fed HFD for 4 weeks or 7 months In total, 5 mg/Kg of PBS, Adiporon, AdipoRonPEG5, AdipoRonPEG6HTL were injected twice a day for 5 days. After 5 days of treatment, systemic test is performed, and serum (Before and after treatment), subcutaneous, epididymal, liver, heart samples were harvested for qPCR and sphingolipid analysis.
Flash-frozen tissue samples (~40 mg) in a borosilicate glass tube were quenched with 2.0 ml of organic extraction solvent (isopropanol: ethyl acetate, 15:85; v:v) and homogenized with a mechanical tissue disruptor. Immediately afterward, 20 μl of organic internal standard solution was added (Ceramide/Sphingoid Internal Standard Mixture II diluted 1:10 in ethanol). The mixture was vortexed for 20 s and sonicated in ultrasonic bath for 40 min at 40°C. The organic extract was allowed to reach room temperature, and 1.5 ml of HPLC water was added and a two-phase liquid-liquid extraction was performed. The upper phase was transferred to a new clean tube, and the lower aqueous phase containing the protein pellet was re-extracted with additional 2.0 ml of organic extraction solvent. The organic phases were combined and dried under nitrogen stream at 40°C. Dried extracts were stored at –80°C until analysis. For analysis of ceramides and sphingoid base species, the dried residues were reconstituted in 200 μl of methanol. Sphingomyelins required a sample dilution of 1:50 in methanol prior to analysis. Serum sphingolipids were extracted using a similar methodology requiring 25 μl of serum.
Liver, subcutaneous adipose tissue, pancreas, pancreatic islets were initially homogenized in 500 μl of cold PBS using an ultrasonic probe disruptor and keeping the sample on ice during sonication. In total, 50 μl of aqueous homogenate was aliquoted for protein determination. In total, 400 μl of the lysate was immediately quenched in 2.0 ml of organic extraction solvent.
In total, 5 μl of reconstituted samples was injected into an LC/MS/MS system for the analysis of ceramides and sphingoid bases, and 1 μl injection was required for the analysis of sphingomyelins. The system consisted of a Shimadzu LCMS-8050 triple-quadrupole mass spectrometer with the dual ion source operating in electrospray positive ionization mode. The mass spectrometer is coupled to a Shimadzu Nexera X2 UHPLC system equipped with three solvent delivery modules LC-30AD, three degassing units DGU-20A5R, an autosampler SIL-30ACMP, and a column oven CTO-20AC operating at 40°C (Shimadzu Scientific Instruments, Columbia, MD). Six sphingoid bases (d18:1 sphingosine, d18:1 sphingosine-1-phosphate, d18:1 deoxysphingosine, d18:0 sphinganine, d18:0 sphinganine-1-phosphate, d18:0 deoxysphinganine) and […] ceramide species and their metabolites (C16:0, C16:0 dihydroceramide, C16:0 glucosylceramide, C16:0 lactosylceramide, C16:0 sphingomyelin, C18:0, C18:0 dihydroceramide, C18:0 glucosylceramide, C18:0 sphingomyelin, C18:1, C20:0, C22:0, C22:0 glucosylceramide, C24:0, C24:0 dihydroceramide, C24:0 lactosylceramide, C24:0 sphingomyelin, C24:1, C24:1 dihydroceramide, C24:1 glucosylceramide, C24:1 sphingomyelin). Quantitative analysis of sphingolipids was achieved using selective reaction monitoring scan mode. Lipid separation was achieved by reverse phase LC on a 2.1 (i.d.) × 150 mm Ascentis Express C8, 2.7 micron (Supelco, Bellefonte, PA) column under gradient elution, using three different mobile phases: eluent A consisting of methanol/water/formic acid, 600/400/0.8, v/v/v with 5 mM ammonium formate, eluent B consisting of methanol/formic acid, 1,000/0.8, v/v with 5 mM ammonium formate, and eluent C consisting of CH3OH/CH2Cl2 350/650. The concentration of each metabolite was determined according to calibration curves using the peak-area ratio of analyte versus corresponding internal standard. Calibration curves were generated using serial dilutions of each target analyte.

Compound: O=C(COc1ccc(C(=O)c2ccccc2)cc1)NC1CCN(Cc2ccc(OCCOCCOCCOCCOCCO)cc2)CC1 [AdipoRonPEG5]
- pancreas S1P level (5 mg/kg): trend of elevating S1P
- pancreas dihydroceramide levels (5 mg/kg): minimal impact
- scWAT ceramide levels (5 mg/kg): neither AdipoRon nor AdipoRonPEG5 had a noticeable impact
- pancreas C24:0 and C24:1 ceramides (5 mg/kg, vs saline controls or AdipoRon): significant reduction
- hepatic dihydroceramides (IP 5 mg/kg): drastically reduced
- serum dihydroceramides dC16:0, dC18:0, dC22:0, dC24:0 (IP 5 mg/kg): drastically lowered
- sphingoid bases including S1P in the liver (IP 5 mg/kg): overall increase
- Cer 14:0 (liver): 10700.6 ± 4986.87 pg/mg
- Cer 16:0 (liver): 10811.2 ± 3038.11 pg/mg
- Cer 18:0 (liver): 41588.7 ± 18827.94 pg/mg
- Cer 18:1 (liver): 0 pg/mg
- Cer 20:0 (liver): 1285175.8 ± 314117.31 pg/mg
- Cer 22:0 (liver): 17214621.7 ± 3730792.66 pg/mg
- Cer 24:0 (liver): 13003125.0 ± 3100177.0 pg/mg
- Cer 24:1 (liver): 11982004.5 ± 3750645.21 pg/mg
- Cer 26:0 (liver): 114936.8 ± 43584.75 pg/mg
- Cer 26:1 (liver): 108478.1 ± 38829.61 pg/mg
- DeoxySphinganie (liver): 17056.5 ± 5841.85 pg/mg
- Deoxysphingosine (liver): 674.4 ± 179.33 pg/mg
- Hexosyl 14:0 (liver): 9405.4 ± 4098.51 pg/mg
- Hexosyl 16:0 (liver): 2563091.7 ± 636477.68 pg/mg
- Hexosyl 18:0 (liver): 8702.7 ± 4241.12 pg/mg
- Hexosyl 20:0 (liver): 91341.0 ± 29325.4 pg/mg
- Hexosyl 22:0 (liver): 18299628.4 ± 6151493.38 pg/mg
- Hexosyl 24:0 (liver): 9345685.4 ± 2422218.78 pg/mg
- Hexosyl 24:1 (liver): 8806042.3 ± 2575774.26 pg/mg
- Lactosyl 16:0 (liver): 857779.3 ± 221964.15 pg/mg
- Lactosyl 18:0 (liver): 0.0 ± 0.0 pg/mg
- Lactosyl 22:0 (liver): 403630.8 ± 109007.39 pg/mg
- Lactosyl 24:1 (liver): 403865.6 ± 85387.31 pg/mg
- Lactosyl C24:0 (liver): 284732.8 ± 96368.82 pg/mg
- Sphingaine1P (liver): 124644.1 ± 37940.82 pg/mg
- Sphinganine (liver): 567456.6 ± 215845.28 pg/mg
- Sphingosine (liver): 1814140 ± 638775.97 pg/mg
- Sphingosine1P (liver): 423169.5 ± 201268.1 pg/mg
- dCer 16:0 (liver): 7004.1 ± 1704.17 pg/mg
- dCer 18:0 (liver): 30523.3 ± 10512.82 pg/mg
- dCer 20:0 (liver): 17088.9 ± 5527.47 pg/mg
- dCer 22:0 (liver): 85360 ± 20574 pg/mg
- dCer 24:0 (liver): 355838.6 ± 67813.11 pg/mg
- dCer 24:1 (liver): 64056.2 ± 12063.67 pg/mg
- Cer 14:0 (pancreas): 20.8 ± 6.06 pg/mg
- Cer 16:0 (pancreas): 28.6 ± 10.14 pg/mg
- Cer 18:0 (pancreas): 31.4 ± 12.12 pg/mg
- Cer 18:1 (pancreas): 0 pg/mg
- Cer 20:0 (pancreas): 1410.3 ± 372.3 pg/mg
- Cer 22:0 (pancreas): 5266.0 ± 1349.3 pg/mg
- Cer 24:0 (pancreas): 16049.4 ± 4089.83 pg/mg
- Cer 24:1 (pancreas): 7744.9 ± 1489.17 pg/mg
- Cer 26:0 (pancreas): 162.6 ± 42.67 pg/mg
- Cer 26:1 (pancreas): 88.6 ± 17.21 pg/mg
- DeoxySphinganie (pancreas): 2.4 ± 0.49 pg/mg
- Deoxysphingosine (pancreas): 0.0 ± 0.0 pg/mg
- Hexosyl 14:0 (pancreas): 4.2 ± 0.35 pg/mg
- Hexosyl 16:0 (pancreas): 2792.5 ± 371.94 pg/mg
- Hexosyl 18:0 (pancreas): 8.8 ± 4.08 pg/mg
- Hexosyl 20:0 (pancreas): 111.6 ± 39.83 pg/mg
- Hexosyl 22:0 (pancreas): 5728.8 ± 1888.49 pg/mg
- Hexosyl 24:0 (pancreas): 3233.9 ± 524.83 pg/mg
- Hexosyl 24:1 (pancreas): 1360.1 ± 170.0 pg/mg
- Lactosyl 16:0 (pancreas): 1043.4 ± 60.99 pg/mg
- Lactosyl 18:0 (pancreas): 61.7 ± 15.72 pg/mg
- Lactosyl 22:0 (pancreas): 258.7 ± 89.43 pg/mg
- Lactosyl 24:1 (pancreas): 337.2 ± 90.18 pg/mg
- Lactosyl C24:0 (pancreas): 2121.1 ± 714.63 pg/mg
- Sphingaine1P (pancreas): 25.6 ± 5.99 pg/mg
- Sphinganine (pancreas): 34.5 ± 9.74 pg/mg
- Sphingosine (pancreas): 219.2 ± 31.51 pg/mg
- Sphingosine1P (pancreas): 113.2 ± 32.02 pg/mg
- dCer 16:0 (pancreas): 5.7 ± 3.12 pg/mg
- dCer 18:0 (pancreas): 0.0 ± 0.0 pg/mg
- dCer 20:0 (pancreas): 1.9 ± 0.7 pg/mg
- dCer 22:0 (pancreas): 54.2 ± 43.08 pg/mg
- dCer 24:0 (pancreas): 302.0 ± 155.43 pg/mg
- dCer 24:1 (pancreas): 47.3 ± 31.67 pg/mg
- Cer 14:0 (scWAT): 32099.4 ± 10520.94 pg/mg
- Cer 16:0 (scWAT): 191093.1 ± 51596.09 pg/mg
- Cer 18:0 (scWAT): 82819.6 ± 17887.79 pg/mg
- Cer 18:1 (scWAT): 21443 ± 6799 pg/mg
- Cer 20:0 (scWAT): 147177.5 ± 8589.73 pg/mg
- Cer 22:0 (scWAT): 712843.5 ± 129405.16 pg/mg
- Cer 24:0 (scWAT): 2685762.3 ± 976754.88 pg/mg
- Cer 24:1 (scWAT): 3013765.2 ± 650894.91 pg/mg
- Cer 26:0 (scWAT): 24885.1 ± 6744.06 pg/mg
- Cer 26:1 (scWAT): 30570.9 ± 6986.86 pg/mg
- DeoxySphinganie (scWAT): 1329.3 ± 1128.06 pg/mg
- Deoxysphingosine (scWAT): 0.0 ± 0.0 pg/mg
- Hexosyl 14:0 (scWAT): 5193.4 ± 2870.39 pg/mg

Reference: publication PMC8327158, “PEGylated AdipoRon derivatives improve glucose and lipid metabolism under insulinopenic and high-fat diet conditions” (Journal of Lipid Research, 2021)
